Test results reported in US9969742B2, “Imidazotriazinone compounds” (Ironwood Pharmaceuticals, Inc., priority 2012, dated 2018).
Like-named read-outs stand apart in the source and are kept apart here.

Tests used:
Format in all cases: biochemical
[1] = target: T1, PDE9A2 (Homo sapiens, UniProt O76083); test: Phosphodiesterase enzyme screening assay, PDE9A2; settings: read-out: Band (PDE9A2 IC50)
T1 construct: purchased Reaction Biology Corporation, Malvern, Pa
How it was run: (§1)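 Recombinant enzymes were run in 100 mM HEPES pH 7.5, 5 mM MgCl2, 1 mM DTT, 0.003% Brij with 4.0 μM cGMP substrate, started with cGMP or cAMP, 1 h at RT, and stopped with EDTA. Fluorescent substrate and product were separated by microfluidic mobility shift.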

[2] = target: T2, PDE1A (Homo sapiens, UniProt P54750); test: Phosphodiesterase enzyme screening assay, PDE1A
T2 construct: purchased Reaction Biology Corporation, Malvern, Pa
How it was run: as §1

[3] = target: T3, PDE1B (Homo sapiens, UniProt Q01064); test: Phosphodiesterase enzyme screening assay, PDE1B
T3 construct: purchased Reaction Biology Corporation, Malvern, Pa
How it was run: as §1

[4] = ratio of IC50 values, PDE1A versus PDE9A2, value greater than 1 indicates greater selectivity for PDE9A2
[5] = ratio of IC50 values, PDE1B versus PDE9A2, value greater than 1 indicates greater selectivity for PDE9A2
[6] = Table 2, 10 concentrations, 4.0 μM cGMP substrate, 1 hour at R.T.
[7] = Table 2, ratio of IC50 values, value greater than 1 indicates greater selectivity for PDE9A2
[8] = ratio of IC50 values, value greater than 1 indicates greater selectivity for PDE9A2
[9] = Table 1, 10 concentrations, 4.0 μM cGMP substrate, 1 hour at R.T.
[10] = Table 1, ratio of IC50 values, value greater than 1 indicates greater selectivity for PDE9A2
[11] = Table 3, 4.0 μM cGMP substrate, 1 hour at R.T.
[12] = ratio of IC50 values, PDE1A versus PDE9A2, value greater than 1 = greater selectivity for PDE9A2
[13] = ratio of IC50 values, PDE1B versus PDE9A2, value greater than 1 = greater selectivity for PDE9A2
[14] = 4.0 μM cGMP substrate, 1 hour at R.T.

T1 sequence (O76083 1-533 isoform O76083-2): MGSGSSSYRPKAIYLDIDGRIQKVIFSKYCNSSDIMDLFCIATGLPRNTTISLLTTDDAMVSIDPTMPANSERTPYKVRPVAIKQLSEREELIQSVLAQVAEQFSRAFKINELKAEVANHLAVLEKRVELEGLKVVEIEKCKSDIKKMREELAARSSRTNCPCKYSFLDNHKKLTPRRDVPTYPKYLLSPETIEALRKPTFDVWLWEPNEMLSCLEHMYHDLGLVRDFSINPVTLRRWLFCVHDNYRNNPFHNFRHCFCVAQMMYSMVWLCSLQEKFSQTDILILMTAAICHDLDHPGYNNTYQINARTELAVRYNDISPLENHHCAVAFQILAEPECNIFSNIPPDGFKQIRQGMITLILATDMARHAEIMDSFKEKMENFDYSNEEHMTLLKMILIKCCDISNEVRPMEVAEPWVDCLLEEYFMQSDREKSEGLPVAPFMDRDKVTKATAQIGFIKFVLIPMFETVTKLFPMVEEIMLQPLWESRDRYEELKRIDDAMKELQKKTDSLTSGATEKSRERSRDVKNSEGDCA
T2 sequence (P54750 whole entry): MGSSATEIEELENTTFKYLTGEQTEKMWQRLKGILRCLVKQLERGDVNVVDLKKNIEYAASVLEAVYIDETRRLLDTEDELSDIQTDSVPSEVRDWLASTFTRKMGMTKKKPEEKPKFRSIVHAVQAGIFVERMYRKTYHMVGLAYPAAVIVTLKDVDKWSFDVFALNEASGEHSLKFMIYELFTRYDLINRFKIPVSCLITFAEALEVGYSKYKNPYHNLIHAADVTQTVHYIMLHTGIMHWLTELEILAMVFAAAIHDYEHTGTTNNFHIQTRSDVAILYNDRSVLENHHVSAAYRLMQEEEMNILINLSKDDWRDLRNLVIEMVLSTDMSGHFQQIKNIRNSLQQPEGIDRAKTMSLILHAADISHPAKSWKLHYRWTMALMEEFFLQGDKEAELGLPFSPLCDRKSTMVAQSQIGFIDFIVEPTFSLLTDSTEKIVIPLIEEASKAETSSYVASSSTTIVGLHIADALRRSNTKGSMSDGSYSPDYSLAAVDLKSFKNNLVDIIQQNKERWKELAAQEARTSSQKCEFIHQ
T3 sequence (Q01064 whole entry): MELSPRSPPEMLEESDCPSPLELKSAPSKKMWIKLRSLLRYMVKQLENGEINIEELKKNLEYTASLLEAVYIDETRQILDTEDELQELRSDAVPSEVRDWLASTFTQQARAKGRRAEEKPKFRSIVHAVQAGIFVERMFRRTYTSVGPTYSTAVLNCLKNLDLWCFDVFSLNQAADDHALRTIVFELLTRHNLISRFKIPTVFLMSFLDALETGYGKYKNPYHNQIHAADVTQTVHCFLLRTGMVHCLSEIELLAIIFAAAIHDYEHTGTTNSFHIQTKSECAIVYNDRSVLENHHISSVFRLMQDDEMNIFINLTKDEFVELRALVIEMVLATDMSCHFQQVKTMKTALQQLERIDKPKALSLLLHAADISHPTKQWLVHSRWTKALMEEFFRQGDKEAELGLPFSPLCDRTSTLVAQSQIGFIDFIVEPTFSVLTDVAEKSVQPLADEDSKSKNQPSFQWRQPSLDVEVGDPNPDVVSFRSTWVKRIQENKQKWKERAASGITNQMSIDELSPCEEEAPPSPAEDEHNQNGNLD

Cc1ccncc1-c1ncc2c(=O)[nH]c(C3CN(Cc4ncccn4)CC3C)nn12 (single isomer, unassigned; (+)) [(+)-2-((3,4-trans)-4-methyl-1-(pyrimidin-2-ylmethyl)pyrrolidin-3-yl)-7-(4-methylpyridin-3-yl)imidazo[5,1-f][1,2,4]triazin-4(3H)-one]
IC50 [1]: < 1000 nM | PDE1A selectivity (versus PDE9A2) [2, 4]: 85 | PDE1B selectivity (versus PDE9A2) [3, 5]: 127

CC1CN(Cc2ncc(C3CC3)cn2)CC1c1nn2c(C3CCOCC3)ncc2c(=O)[nH]1 (single isomer, unassigned; (+)) [(+)-2-((3,4-trans)-1-((5-cyclopropylpyrimidin-2-yl)methyl)-4-methylpyrrolidin-3-yl)-7-(tetrahydro-2H-pyran-4-yl)imidazo[5,1-f][1,2,4]triazin-4(3H)-one]
IC50 [1, 6]: < 1000 nM | PDE1A selectivity (versus PDE9A2) [2, 7]: 151 | PDE1B selectivity (versus PDE9A2) [3, 7]: 670

Cc1cc(F)c(F)cc1-c1ncc2c(=O)[nH]c(C3CN(Cc4ncccn4)CC3C)nn12 (single isomer, unassigned; (+)) [(+)-7-(4,5-difluoro-2-methylphenyl)-2-((3,4-trans)-4-methyl-1-(pyrimidin-2-ylmethyl)pyrrolidin-3-yl)imidazo[5,1-f][1,2,4]triazin-4(3H)-one]
IC50 [1]: < 1000 nM | PDE1A selectivity (versus PDE9A2) [2, 4]: 44 | PDE1B selectivity (versus PDE9A2) [3, 5]: 85

Cc1nc(CN2CC(C)C(c3nn4c(C5CCOCC5)ncc4c(=O)[nH]3)C2)cs1 (single isomer, unassigned; (+)) [(+)-2-((3,4-trans)-4-methyl-1-((2-methylthiazol-4-yl)methyl)pyrrolidin-3-yl)-7-(tetrahydro-2H-pyran-4-yl)imidazo[5,1-f][1,2,4]triazin-4(3H)-one]
IC50 [1]: < 1000 nM | PDE1A selectivity (versus PDE9A2) [2, 8]: 12 | PDE1B selectivity (versus PDE9A2) [3, 8]: 19

CC1CN(Cc2ccccn2)CC1c1nn2c(C3CCOCC3)ncc2c(=O)[nH]1 (single isomer, unassigned; (+)) [(+)-2-((3,4-trans)-4-methyl-1-(pyridin-2-ylmethyl)pyrrolidin-3-yl)-7-(tetrahydro-2H-pyran-4-yl)imidazo[5,1-f][1,2,4]triazin-4(3H)-one]
IC50 [1, 9]: < 1000 nM | PDE1A selectivity (versus PDE9A2) [2, 10]: 373 | PDE1B selectivity (versus PDE9A2) [3, 10]: 470

CCC(CC)c1ncc2c(=O)[nH]c(C3CN(Cc4ccc(F)cc4)CC3C)nn12 (single isomer, unassigned; (+)) [(+)-2-((3,4-trans)-1-(4-fluorobenzyl)-4-methylpyrrolidin-3-yl)-7-(pentan-3-yl)imidazo[5,1-f][1,2,4]triazin-4(3H)-one]
IC50 [1]: < 1000 nM | PDE1A selectivity (versus PDE9A2) [2, 4]: 70 | PDE1B selectivity (versus PDE9A2) [3, 5]: 27

CC1CN(Cc2ncc(C#N)cn2)CC1c1nn2c(C3CCOCC3)ncc2c(=O)[nH]1 (single isomer, unassigned; (+)) [(+)-2-(((3,4-trans)-3-methyl-4-(4-oxo-7-(tetrahydro-2H-pyran-4-yl)-3,4-dihydroimidazo[5,1-f][1,2,4]triazin-2-yl)pyrrolidin-1-yl)methyl)pyrimidine-5-carbonitrile]
IC50 [1, 6]: < 1000 nM | PDE1A selectivity (versus PDE9A2) [2, 7]: 22 | PDE1B selectivity (versus PDE9A2) [3, 7]: 65

CC1CN(Cc2nc3ccccc3[nH]2)CC1c1nn2c(C3CCOCC3)ncc2c(=O)[nH]1 (single isomer, unassigned; (-)) [(−)-2-((3,4-trans)-1-((1H-benzo[d]imidazol-2-yl)methyl)-4-methylpyrrolidin-3-yl)-7-(tetrahydro-2H-pyran-4-yl)imidazo[5,1-f][1,2,4]triazin-4(3H)-one]
IC50 [1, 9]: < 1000 nM | PDE1A selectivity (versus PDE9A2) [2, 10]: 433 | PDE1B selectivity (versus PDE9A2) [3, 10]: 540

C[C@@H]1CN(Cc2ncccn2)C[C@H]1c1nn2c(C3CCOCC3)ncc2c(=O)[nH]1 (relative stereo) [(+)-2-((3,4-trans)-4-, (+)-2-((3,4-trans)-4-methyl-1-(pyrimidin-2-ylmethyl)pyrrolidin-3-yl)-7-(tetrahydro-2H-pyran-4-yl)imidazo[5,1-f][1,2,4]triazin-4(3H)-one]
IC50 [1, 11]: < 1000 nM | PDE1A selectivity (versus PDE9A2) [2, 12]: 214 | PDE1B selectivity (versus PDE9A2) [3, 13]: 456

CC1CN(Cc2cn3ccccc3n2)CC1c1nn2c(C3CCOCC3)ncc2c(=O)[nH]1 (single isomer, unassigned; (+)) [(+)-2-((3,4-trans)-1-(imidazo[1,2-a]pyridin-2-ylmethyl)-4-methylpyrrolidin-3-yl)-7-(tetrahydro-2H-pyran-4-yl)imidazo[5,1-f][1,2,4]triazin-4(3H)-one]
IC50 [1, 9]: < 1000 nM | PDE1A selectivity (versus PDE9A2) [2, 10]: 754 | PDE1B selectivity (versus PDE9A2) [3, 10]: 734

CC1CN(Cc2ccncn2)CC1c1nn2c(C3CCOCC3)ncc2c(=O)[nH]1 (single isomer, unassigned; (+)) [(+)-2-((3,4-trans)-4-methyl-1-(pyrimidin-4-ylmethyl)pyrrolidin-3-yl)-7-(tetrahydro-2H-pyran-4-yl)imidazo[5,1-f][1,2,4]triazin-4(3H)-one]
IC50 [1, 9]: < 1000 nM | PDE1A selectivity (versus PDE9A2) [2, 10]: 136 | PDE1B selectivity (versus PDE9A2) [3, 10]: 174

CC1CN(c2nccc(C(F)(F)F)n2)CC1c1nn2c(C3CCOCC3)ncc2c(=O)[nH]1 (single isomer, unassigned; (+)) [(+)-2-((3,4-trans)-4-methyl-1-(4-(trifluoromethyl)pyrimidin-2-yl)pyrrolidin-3-yl)-7-(tetrahydro-2H-pyran-4-yl)imidazo[5,1-f][1,2,4]triazin-4(3H)-one]
IC50 [1, 14]: < 1000 nM | PDE1A selectivity (versus PDE9A2) ([2]; ratio of IC50 values PDE1A / PDE9A2, value greater than 1 = greater selectivity for PDE9A2): 7 | PDE1B selectivity (versus PDE9A2) ([3]; ratio of IC50 values PDE1B / PDE9A2, value greater than 1 = greater selectivity for PDE9A2): 1

CC1CN(Cc2ncc(N3CCCC3)cn2)CC1c1nn2c(C3CCOCC3)ncc2c(=O)[nH]1 (single isomer, unassigned; (+)) [(+)-2-((3,4-trans)-4-methyl-1-((5-(pyrrolidin-1-yl)pyrimidin-2-yl)methyl)pyrrolidin-3-yl)-7-(tetrahydro-2H-pyran-4-yl)imidazo[5,1-f][1,2,4]triazin-4(3H)-one]
IC50 [1, 6]: < 1000 nM | PDE1A selectivity (versus PDE9A2) [2, 7]: 105 | PDE1B selectivity (versus PDE9A2) [3, 7]: 496

COc1ccnc(CN2CC(C)C(c3nn4c(C5CCOCC5)ncc4c(=O)[nH]3)C2)c1 (single isomer, unassigned; (+)) [(+)-2-((3,4-trans)-1-((4-methoxypyridin-2-yl)methyl)-4-methylpyrrolidin-3-yl)-7-(tetrahydro-2H-pyran-4-yl)imidazo[5,1-f][1,2,4]triazin-4(3H)-one]
IC50 [1, 11]: < 1000 nM | PDE1A selectivity (versus PDE9A2) [2, 12]: 466 | PDE1B selectivity (versus PDE9A2) [3, 13]: 456

CC1CN(Cc2cccc(N(C)C)c2)CC1c1nn2c(C3CCOCC3)ncc2c(=O)[nH]1 (single isomer, unassigned; (+)) [(+)-2-((3,4-trans)-1-(3-(dimethylamino)benzyl)-4-methylpyrrolidin-3-yl)-7-(tetrahydro-2H-pyran-4-yl)imidazo[5,1-f][1,2,4]triazin-4(3H)-one]
IC50 [1, 9]: < 1000 nM | PDE1A selectivity (versus PDE9A2) [2, 10]: 680 | PDE1B selectivity (versus PDE9A2) [3, 10]: 923

CC1CN(Cc2ncccn2)CC1c1nn2c(-c3ccccc3F)ncc2c(=O)[nH]1 (single isomer, unassigned; (+)) [(+)-7-(2-fluorophenyl)-2-((3,4-trans)-4-methyl-1-(pyrimidin-2-ylmethyl)pyrrolidin-3-yl)imidazo[5,1-f][1,2,4]triazin-4(3H)-one]
IC50 [1, 14]: < 1000 nM | PDE1A selectivity (versus PDE9A2) ([2]; ratio of IC50 values PDE1A / PDE9A2, value greater than 1 indicates greater selectivity for PDE9A2): 19 | PDE1B selectivity (versus PDE9A2) ([3]; ratio of IC50 values PDE1B / PDE9A2, value greater than 1 indicates greater selectivity for PDE9A2): 39

CC1CN(Cc2nc3ccccn3n2)CC1c1nn2c(-c3cccc(F)c3)ncc2c(=O)[nH]1 (single isomer, unassigned; (+)) [(+)-2-((3,4-trans)-1-([1,2,4]triazolo[1,5-a]pyridin-2-ylmethyl)-4-methylpyrrolidin-3-yl)-7-(3-fluorophenyl)imidazo[5,1-f][1,2,4]triazin-4(3H)-one]
IC50 [1]: < 1000 nM | PDE1A selectivity (versus PDE9A2) [2, 4]: 3 | PDE1B selectivity (versus PDE9A2) [3, 5]: 10

CC1CN(Cc2ncc(F)cn2)CC1c1nn2c(C3CCOCC3)ncc2c(=O)[nH]1 (single isomer, unassigned; (+)) [(+)-2-((3,4-trans)-1-((5-fluoropyrimidin-2-yl)methyl)-4-methylpyrrolidin-3-yl)-7-(tetrahydro-2H-pyran-4-yl)imidazo[5,1-f][1,2,4]triazin-4(3H)-one]
IC50 [1, 6]: < 1000 nM | PDE1A selectivity (versus PDE9A2) [2, 7]: 133 | PDE1B selectivity (versus PDE9A2) [3, 7]: 279

CC1CN(Cc2ccc3nccn3n2)CC1c1nn2c(C3CCOCC3)ncc2c(=O)[nH]1 (single isomer, unassigned; (+)) [(+)-2-((3,4-trans)-1-(imidazo[1,2-b]pyridazin-6-ylmethyl)-4-methylpyrrolidin-3-yl)-7-(tetrahydro-2H-pyran-4-yl)imidazo[5,1-f][1,2,4]triazin-4(3H)-one]
IC50 [1, 9]: < 1000 nM | PDE1A selectivity (versus PDE9A2) [2, 10]: 232 | PDE1B selectivity (versus PDE9A2) [3, 10]: 633
